The values that follow come from US12486280B2, “CDK inhibitors and uses thereof” (California Institute of Technology, priority 2018, dated 2025).

The subject of data set [1] is drug-resistant cell lines of Table 2 (NCI-H1437, OV207, HCC1806, NCI-H2172). As to the kind of experiment: Cell Line Growth Retardation Assay, resistant cohort. It counts as cell-based, human. Particulars: Homo sapiens, […], geometric mean over resistant cohort; 6 days growth; read-out: AvgResIC50. The method, then: (§1) Cells were seeded at densities of 1,000-5,000 cells per well in 48-well tissue culture plates. After a 24 hours rest period, cells were treated with compound at 10 μM, 2 μM, 0.4 μM, 0.08 μM, 0.016 μM, and 0.0032 μM. A group of cells were treated with the vehicle in which the compound was prepared and served as a control. The cells were grown in the presence of compounds for 6 days and were counted on day 0 and day 6. A11 cell counting was performed using a Synentec Cellavista plate imager. […] Growth inhibition was calculated as a ratio of cell population doublings in the presence of compound versus the absence of compound. […] IC50 values for each compound (see Table 3; reported in μM) were calculated by fitting curves to data points from each dose-response assay using the Proc NLIN function in SAS for Windows version 9.2 (SAS Institute, Inc.).
(§2) These sensitive and resistant cohorts were interrogated for response to each compound, and IC50s were calculated for each cell line using the same technique described above. Average IC50s for the sensitive and resistant cohorts were calculated as geometric means of the group. “Therapeutic Window” for each compound was calculated by dividing the average IC50 for the drug-resistant group by the average IC50 for the drug-sensitive group.

The test system of data set [2] is CYP isozymes (IC50s averaged over the isozymes). As to the kind of experiment: CYP Enzymatic Inhibition Assay in human liver microsomes.
For data set [3], the system named is drug-sensitive cell lines of Table 2 (EFM-19, MDA-MB-453, T-47D, ZR-75-1, NCI-H441, OVTOKO, NCI-H1838). As to the kind of experiment: Cell Line Growth Retardation Assay, sensitive cohort. The class given is cell-based, human. Conditions: for IC50: Homo sapiens, geometric mean over sensitive cohort, 6 days growth, read-out: AvgSensIC50; for Ther Window: average IC50 drug-resistant group divided by average IC50 drug-sensitive group. The method, then:
as §1, §2

The nature of data set [4]: Caco-2 Assay (Papp A to B). Particulars: human, Caco-2, pH 7.4.
Data set [5] deals with hERG potassium channels (Homo sapiens (Human), UniProt Q12809). As to the kind of experiment: hERG Inhibition Assay (QPatch automated patch clamp, CHO cells). Conditions: percent of control current.
Sequence of hERG potassium channels (Q12809 whole entry): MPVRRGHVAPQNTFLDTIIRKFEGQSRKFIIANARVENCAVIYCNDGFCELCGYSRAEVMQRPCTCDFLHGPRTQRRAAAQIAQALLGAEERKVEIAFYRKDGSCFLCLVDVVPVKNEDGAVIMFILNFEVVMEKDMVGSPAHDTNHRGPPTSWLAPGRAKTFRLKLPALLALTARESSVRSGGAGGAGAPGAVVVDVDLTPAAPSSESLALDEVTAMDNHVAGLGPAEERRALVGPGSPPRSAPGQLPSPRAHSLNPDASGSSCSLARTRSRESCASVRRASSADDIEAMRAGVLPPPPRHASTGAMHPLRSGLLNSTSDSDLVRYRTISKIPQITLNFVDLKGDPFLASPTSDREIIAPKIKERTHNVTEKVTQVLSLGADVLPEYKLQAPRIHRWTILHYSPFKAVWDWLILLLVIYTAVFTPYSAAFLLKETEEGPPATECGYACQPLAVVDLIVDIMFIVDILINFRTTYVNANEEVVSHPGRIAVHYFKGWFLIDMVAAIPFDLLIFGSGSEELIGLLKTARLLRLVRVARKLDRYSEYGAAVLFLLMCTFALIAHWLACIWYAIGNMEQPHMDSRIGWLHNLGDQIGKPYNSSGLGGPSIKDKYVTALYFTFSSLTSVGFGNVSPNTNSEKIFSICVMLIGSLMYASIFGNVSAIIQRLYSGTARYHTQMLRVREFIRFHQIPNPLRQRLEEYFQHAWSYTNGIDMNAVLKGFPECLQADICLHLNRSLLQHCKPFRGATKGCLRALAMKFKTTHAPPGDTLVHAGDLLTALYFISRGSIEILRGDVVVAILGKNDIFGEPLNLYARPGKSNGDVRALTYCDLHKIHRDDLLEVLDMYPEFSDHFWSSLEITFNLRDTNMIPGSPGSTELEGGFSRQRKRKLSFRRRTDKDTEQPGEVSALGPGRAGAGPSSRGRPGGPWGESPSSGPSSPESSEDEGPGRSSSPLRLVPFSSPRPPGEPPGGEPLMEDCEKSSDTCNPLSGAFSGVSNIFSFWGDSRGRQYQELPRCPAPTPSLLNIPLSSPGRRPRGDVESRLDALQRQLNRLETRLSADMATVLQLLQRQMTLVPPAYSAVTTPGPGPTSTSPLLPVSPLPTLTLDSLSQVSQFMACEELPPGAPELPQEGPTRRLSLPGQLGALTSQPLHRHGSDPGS
Procedure: Effects of compounds on hERG potassium channel conductance was assessed using the automated patch clamp method QPatch^HTX. Compounds were prepared at 10 mM stocks. CHO cells stably expressing hERG potassium channels were used for this assay. Cells were cultured in a humidified and air-controlled 5% CO2) incubator at 37° C. Compound stocks and the positive control Amitriptyline were dissolved in 100% DMSO to make various solution concentrations. These solutions were further diluted into extracellular solution to achieve final concentrations for testing. The final DMSO concentration in extracellular solution was 0.30%. The hERG QPatch^HTX assay was conducted at room temperature.
The following voltage command protocol was used: • From the holding potential of −80 mV, the voltage was first stepped to −50 mV for 80 ms for leak subtraction, and then stepped to +20 mV for 4,800 ms to open hERG channels. • After which, the voltage was stepped back down to −50 mV for 5,000 ms, causing a “rebound” or tail current, which was measured and collected for data analysis. • Finally, the voltage was stepped back to the holding potential of −80 mV for 3,100 ms.
For each experiment, three additions of 5 μL of the vehicle were applied, followed by 30 runs of the voltage command protocol for a baseline period. Then, the ascending doses of each compound were added with three repetitions (5 μL of compound each time).
Data set [6] has as its target CDK6 (Homo sapiens (Human), UniProt Q00534). As to the kind of experiment: Cdk4 and 6 Enzymatic Inhibition Assay (radiometric 33PanQinase, Ki determination). It counts as biochemical. The method, then: (§3) 10 distinct concentrations were prepared, with a dilution endpoint of 6×10^−9 M in 100% DMSO. 100% DMSO was used as a control. 10 μL from each of the serial dilutions were aliquoted into separate wells of a 96-well plate and 90 μL of water were added to each of those wells. The plate was shaken thoroughly, and 5 μL from each of the plate's wells were transferred into wells of the assay plate. The final volume of wells in the assay plate was 50 μL. A11 compounds were tested at 10 assay concentrations in the range from 2×10^−6 M to 6×10^−11 M. The final DMSO concentration in the wells of the assay plate was 1% in all cases.
(§4) A radiometric protein kinase assay (33PanQinase® Activity Assay) was used for measuring the kinase activity of six protein kinases. A11 kinase assays were performed in 96-well FlashPlates™ from PerkinElmer (Boston, MA, USA). The assay for all protein kinases contained 70 mM HEPES-NaOH pH 7.5, 3 mM MgCl2, 3 mM MnCl2, 3 μM Na-orthovanadate, 1.2 mM DTT, 50 μg/mL PEG20000, ATP [γ-33P]-ATP (approx. 9×1005 cpm per well), protein kinase and substrate. The reaction cocktails were incubated at 30° C. for 60 minutes. The reaction was stopped with 50 μL of 2% (v/v) H3PO4, and plates were aspirated and washed two times with 200 μL 0.9% (w/v) NaCl. Incorporation of ^33Pi was determined with a microplate scintillation counter (Microbeta, Wallac).

In data set [7] the target is CDK4 (Homo sapiens (Human), UniProt P11802). Described as above. It counts as biochemical. The method, then: as §3, §4
Sequence of CDK4 (P11802 whole entry): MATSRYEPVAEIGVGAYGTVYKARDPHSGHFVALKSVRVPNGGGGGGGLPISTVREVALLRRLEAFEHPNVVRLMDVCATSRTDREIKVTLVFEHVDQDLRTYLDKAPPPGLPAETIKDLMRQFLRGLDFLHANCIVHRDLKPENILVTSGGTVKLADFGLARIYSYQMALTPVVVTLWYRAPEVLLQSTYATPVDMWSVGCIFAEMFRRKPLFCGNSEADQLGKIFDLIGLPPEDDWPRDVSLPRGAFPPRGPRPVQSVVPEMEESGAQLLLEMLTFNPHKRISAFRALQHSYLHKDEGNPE
Sequence of CDK4 (P24385 whole entry partner): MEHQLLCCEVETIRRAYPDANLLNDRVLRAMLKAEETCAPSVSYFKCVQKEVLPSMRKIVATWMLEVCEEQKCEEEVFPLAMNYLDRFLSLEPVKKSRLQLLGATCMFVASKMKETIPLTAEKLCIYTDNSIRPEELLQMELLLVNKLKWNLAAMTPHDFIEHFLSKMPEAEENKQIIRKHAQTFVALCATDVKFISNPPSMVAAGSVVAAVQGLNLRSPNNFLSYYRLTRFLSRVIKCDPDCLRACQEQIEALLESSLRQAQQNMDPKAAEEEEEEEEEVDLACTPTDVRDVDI
Data set [8] is described as follows: Measurement of Compound Metabolic Stability in hepatocytes.

Each structure is given as a SMILES string.

Sequence of CDK6 (Q00534 whole entry): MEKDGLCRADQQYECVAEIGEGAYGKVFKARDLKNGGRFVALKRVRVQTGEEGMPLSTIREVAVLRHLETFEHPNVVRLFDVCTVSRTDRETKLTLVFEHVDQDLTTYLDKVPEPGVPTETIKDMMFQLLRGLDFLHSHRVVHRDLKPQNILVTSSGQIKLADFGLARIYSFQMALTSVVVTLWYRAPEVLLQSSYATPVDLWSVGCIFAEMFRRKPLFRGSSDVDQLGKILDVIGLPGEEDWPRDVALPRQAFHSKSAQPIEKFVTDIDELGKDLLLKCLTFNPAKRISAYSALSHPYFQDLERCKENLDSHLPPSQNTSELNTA
Sequence of CDK6 (P24385 whole entry partner): as the sequence (P24385 whole entry partner) above

Take `Cc1nc2c(F)cc(-c3nc(Nc4ccc(CN5CCO[C@](C)(CCN6CC[C@H](F)C6)C5)cn4)ncc3F)cc2n1C(C)C` [Compound A14, 5-fluoro-4-(4-fluoro-1-isopropyl-2-methyl-1H-benzo[d]imidazol-6-yl)-N-(5-(((R)-2-(2-((S)-3-fluoropyrrolidin-1-yl)ethyl)-2-methylmorpholino)methyl)pyridin-2-yl)pyrimidin-2-amine]: the IC50 stood at 980 nM in data set [1] and 80 nM in data set [3]. Besides, the IC50 at 10 min in data set [2] was determined as 16900 nM. Moreover, the “Ther Window” value in data set [3] is given as 11.53. In data set [4], this compound had an apparent permeability from apical to basolateral (Papp A→B) at 2 h, 2 μM of 0.69 ×10⁻⁶ cm/s. The compound also displayed a hERG in data set [5] of 23.34%. Moreover, the Ki was 4.99 nM in data set [6] and 0.92 nM in data set [7]. The same compound came in with a half-life at 1 μM in data set [8] of 0.178 h.

As for `Cc1nc2c(F)cc(-c3nc(Nc4ccc(CN5CCO[C@](C)(CCN6CC[C@@H](F)C6)C5)cn4)ncc3F)cc2n1C(C)C` [Compound A15, 5-fluoro-4-(4-fluoro-1-isopropyl-2-methyl-1H-benzo[d]imidazol-6-yl)-N-(5-(((R)-2-(2-((R)-3-fluoropyrrolidin-1-yl)ethyl)-2-methylmorpholino)methyl)pyridin-2-yl)pyrimidin-2-amine], the IC50 was determined as 590 nM in data set [1] and 80 nM in data set [3]. Further, the IC50 at 10 min in data set [2] came out at 17100 nM. Further, in data set [3], the “Ther Window” value came to 7.07. This compound registered a Papp A→B at 2 h, 2 μM in data set [4] of 0.8 ×10⁻⁶ cm/s. Further, the hERG in data set [5] is 17.46%. The results for the inhibitory constant (Ki) in data set [6] and in data set [7] were 4.04 nM and 0.78 nM, respectively. The compound also displayed a half-life at 1 μM in data set [8] of 0.322 h.

As for `Cc1nc2c(F)cc(-c3nc(Nc4ccc(CN5CCO[C@](C)(CCN6CCCC6)C5)cn4)ncc3F)cc2n1C(C)C` [Compound A16, (R)-5-fluoro-4-(4-fluoro-1-isopropyl-2-methyl-1H-benzo[d]imidazol-6-yl)-N-(5-((2-methyl-2-(2-(pyrrolidin-1-yl)ethyl)morpholino)methyl)pyridin-2-yl)pyrimidin-2-amine], the IC50 was 870 nM in data set [1] and 60 nM in data set [3]. The compound further registered an IC50 at 10 min in data set [2] of 47900 nM. Besides, the “Ther Window” value in data set [3] is recorded as 15.20. Further, the apparent permeability from apical to basolateral (Papp A→B) at 2 h, 2 μM in data set [4] is 0.01 ×10⁻⁶ cm/s. In data set [5], this compound displayed a hERG of 18.09%. Further, the figures for the inhibitory constant (Ki) in data set [6] and in data set [7] were 5.81 nM and 1.42 nM, respectively. This compound also came in with a half-life at 1 μM in data set [8] of 3.61 h.

As to `Cc1nc2c(F)cc(-c3nc(Nc4ccc(CN5CCO[C@](C)(CCN6CCC6)C5)cn4)ncc3F)cc2n1C(C)C` [Compound A17, (R)—N-(5-((2-(2-(azetidin-1-yl)ethyl)-2-methylmorpholino)methyl)pyridin-2-yl)-5-fluoro-4-(4-fluoro-1-isopropyl-2-methyl-1H-benzo[d]imidazol-6-yl)pyrimidin-2-amine], the IC50 was found to be 850 nM in data set [1] and 50 nM in data set [3]. In data set [2], the IC50 at 10 min amounted to 51700 nM. The “Ther Window” value in data set [3] is reported as 15.41. For the same compound, the Papp A→B at 2 h, 2 μM in data set [4] turned out to be 0.02 ×10⁻⁶ cm/s. In data set [5], this compound showed a hERG of 20.47%. In addition, the results for the inhibitory constant (Ki) in data set [6] and in data set [7] were 5.25 nM and 1.03 nM, respectively. In data set [8], this compound gave a half-life at 1 μM of 3.61 h.

Turning to `COC1(C)CN(CC[C@]2(C)CN(Cc3ccc(Nc4ncc(F)c(-c5cc(F)c6nc(C)n(C(C)C)c6c5)n4)nc3)CCO2)C1` [Compound A18, (R)-5-fluoro-4-(4-fluoro-1-isopropyl-2-methyl-1H-benzo[d]imidazol-6-yl)-N-(5-((2-(2-(3-methoxy-3-methylazetidin-1-yl)ethyl)-2-methylmorpholino)methyl)pyridin-2-yl)pyrimidin-2-amine], the figures for the IC50 in data set [1] and in data set [3] were 920 nM and 90 nM, respectively. In addition, the IC50 at 10 min in data set [2] is 26800 nM. The “Ther Window” value in data set [3] worked out at 10.77. The Papp A→B at 2 h, 2 μM in data set [4] was 0.11 ×10⁻⁶ cm/s. The compound further came in with a hERG in data set [5] of 21.45%. Further, the Ki in data set [6] came to 7.62 nM; in data set [7], 1.55 nM. Besides, in data set [8], the half-life at 1 μM worked out at 1.13 h.
